Assay results from US11399541B2, “Storage-stable microbicidal concentrates and use thereof as preservatives” (Vink Chemicals GmbH & Co. KG, priority 2017, dated 2022).
Marks after values point to notes of the source that are not given here.

What was measured:
[1] = tested on: Staphylococcus aureus; assay: Staphylococcus aureus Germ Count Reduction Test; type: cell-based; settings: use-concentration (0.50% Composition 1; 0.0025% amine; 0.0050% butyl-BIT; 0.50% phenoxyethanol), initial count approx. 10^7 cfu/ml; for semi-quantitative assessment of the microbial growth of the streaks, Contact time [min] 2: contact time 2 min; for semi-quantitative assessment of the microbial growth of the streaks, Contact time [min] 5: contact time 5 min; for semi-quantitative assessment of the microbial growth of the streaks, Contact time [min] 10: contact time 10 min; for semi-quantitative assessment of the microbial growth of the streaks, Contact time [min] 60: contact time 60 min
Protocol: (§1) Dilutions of the samples are prepared with sterile tap water. 25 ml portions of the end solutions are inoculated with 0.1 ml microorganism suspension (initial microorganism count approx. 10^7 cfu/ml) and stirred.
For the reduction test with Staphylococcus aureus the solutions are streaked out onto tryptone soya agar after 2,5,10 and 60 minutes.
(§2) The cultures are incubated for 48 hours at 37° C., except for Aspergillus brasiliensis, which is incubated for 72 hours at 25-27° C. The evaluation is made on the basis of semi-quantitative assessment of the microbial growth of the streaks.

[2] = tested on: Aspergillus brasiliensis; assay: Aspergillus brasiliensis Germ Count Reduction Test; type: cell-based; settings: use-concentration (0.50% Composition 1; 0.0025% amine; 0.0050% butyl-BIT; 0.50% phenoxyethanol), initial count approx. 10^7 cfu/ml; for semi-quantitative assessment of the microbial growth of the streaks, Contact time [h] 1: contact time 1 h; for semi-quantitative assessment of the microbial growth of the streaks, Contact time [h] 3: contact time 3 h; for semi-quantitative assessment of the microbial growth of the streaks, Contact time [h] 6: contact time 6 h; for semi-quantitative assessment of the microbial growth of the streaks, Contact time [h] 24: contact time 24 h
Protocol: as §1
For testing the reduction with Aspergillus brasiliensis the solutions are streaked out onto Sabouraud-dextrose 4% agar after 1, 3, 6 and 24 hours.
as §2

Structure (SMILES)	semi-quantitative assessment of the microbial growth of the streaks, Contact time [min] 2 [1]	semi-quantitative assessment of the microbial growth of the streaks, Contact time [min] 5 [1]	semi-quantitative assessment of the microbial growth of the streaks, Contact time [min] 10 [1]	semi-quantitative assessment of the microbial growth of the streaks, Contact time [min] 60 [1]	semi-quantitative assessment of the microbial growth of the streaks, Contact time [h] 1 [2]	semi-quantitative assessment of the microbial growth of the streaks, Contact time [h] 3 [2]	semi-quantitative assessment of the microbial growth of the streaks, Contact time [h] 6 [2]	semi-quantitative assessment of the microbial growth of the streaks, Contact time [h] 24 [2]
CCCCn1sc2ccccc2c1=O [2-butyl-1,2-benzisothiazolin-3-one]	++++ (= massive growth approx. 10^5)	++++ (= massive growth approx. 10^5)	++++ (= massive growth approx. 10^5)	+++ (= heavy growth approx. 10^4)	++++ (= massive growth approx. 10^5)	++++ (= massive growth approx. 10^5)	++++ (= massive growth approx. 10^5)	++++ (= massive growth approx. 10^5)
CCCCCCCCCCCCN(CCCN)CCCN [N,N bis(3-aminopropyl)-dodecylamine]	+++ (= heavy growth approx. 10^4)	++ (= moderate growth approx. 10^3)	++ (= moderate growth approx. 10^3)	− (= no growth <100)	C (= surface covered approx. 10^6)	C (= surface covered approx. 10^6)	++++ (= massive growth approx. 10^5)	++++ (= massive growth approx. 10^5)
